Results: US10975037B2 (priority 2018, dated 2021)
Read-outs that look alike come from different tables or passages of the source.

Experiments:
[1] = biological target: human RORγt ligand binding domain (RORγt LBD) (Homo sapiens (Human), UniProt P51449); experiment: RORγt ThermoFluor® assay (thermal shift binding)
In short: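 Thermal shift with 0.065 mg/mL RORγt LBD and 60 μM 1,8-ANS in 100 mM Hepes pH 7.0, 10 mM NaCl, 2.5 mM GSH, 0.002% Tween-20.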

[2] = biological target: full-length human RORγt (Homo sapiens (Human), UniProt P51449); experiment: RORγt (full-length human) reporter assay, conditions A or B, HEK293T cells; type: cell-based; conditions: for inhibition at […] / inhibition at 0.67 µM / inhibition at 3 µM / inhibition at 2 µM: read-out: RORγt (FL) Reporter Assay A or B, % inhibition; for inhibition at 0.67 µM: 0.67 μM compound concentration (footnote ****); for inhibition at 3 µM: 3 μM compound concentration (footnote *); for inhibition at 2 µM: 2 μM compound concentration
Sequence of full-length human RORγt (P51449 other isoform, or with tags, fused parts or gaps): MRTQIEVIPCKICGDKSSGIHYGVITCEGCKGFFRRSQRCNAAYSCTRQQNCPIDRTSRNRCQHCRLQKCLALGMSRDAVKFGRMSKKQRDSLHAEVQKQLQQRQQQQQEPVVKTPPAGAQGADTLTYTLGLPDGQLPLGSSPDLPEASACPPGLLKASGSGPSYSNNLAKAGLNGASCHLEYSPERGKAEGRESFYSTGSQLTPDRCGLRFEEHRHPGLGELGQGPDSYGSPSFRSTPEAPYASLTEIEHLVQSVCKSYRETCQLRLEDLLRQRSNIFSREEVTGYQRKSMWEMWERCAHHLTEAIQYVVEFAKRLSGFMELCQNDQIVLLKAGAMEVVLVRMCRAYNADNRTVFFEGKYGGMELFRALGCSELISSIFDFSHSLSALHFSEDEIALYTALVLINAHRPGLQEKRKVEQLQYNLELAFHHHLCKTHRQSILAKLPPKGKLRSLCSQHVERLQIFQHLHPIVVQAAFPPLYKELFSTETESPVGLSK
In short: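 After 16–20 h, dual firefly/Renilla luciferase luminescence was read. Firefly signal was normalized to DMSO and saturating reference compound, then to Renilla, and fitted for IC50; % inhibition is versus DMSO.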

[3] = read-out: ThermoFluor® Assay, Kd
[4] = RORγt (FL) Reporter Assay A or B, IC50, HEK293T cells

Sequence of human RORγt ligand binding domain (RORγt LBD) (P51449 other isoform, or with tags, fused parts or gaps): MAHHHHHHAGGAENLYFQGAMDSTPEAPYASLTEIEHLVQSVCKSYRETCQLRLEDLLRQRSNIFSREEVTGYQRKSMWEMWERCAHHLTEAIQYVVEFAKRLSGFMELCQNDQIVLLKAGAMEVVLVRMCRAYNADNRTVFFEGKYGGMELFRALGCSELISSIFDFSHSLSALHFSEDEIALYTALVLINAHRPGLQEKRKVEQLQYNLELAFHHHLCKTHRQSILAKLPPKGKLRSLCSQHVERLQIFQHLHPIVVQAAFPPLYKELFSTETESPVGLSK

Compound	Kd [1, 3]	IC50 [2, 4]	Kd ([1]; ThermoFluor® Assay, Kd)	inhibition at 3 µM ([2]; HEK-293T)	other results
CCn1nc(C(=O)NC[C@]2(O)CC[C@@H](S(C)(=O)=O)CC2)c(C)c1-c1ccc(CCC(F)(F)F)cc1OC(F)F [Example 223, 5-(2-(Difluoromethoxy)-4-(3,3,3-trifluoropropyl)phenyl)-1-ethyl-N-(((1s,4s)-1-hydroxy-4-(methylsulfonyl)cyclohexyl)methyl)-4-methyl-1H-pyrazole-3-carboxamide]	10 nM	2.3 nM			inhibition at […] ([2]; HEK-293T, 0.33 μM compound concentration (footnote *****)): 68%
CCn1nc(C(=O)NC[C@]2(O)CC[C@@H](S(C)(=O)=O)CC2)c(Cl)c1-c1c(F)cc(C[C@@H](C)C(F)(F)F)cc1F (single isomer, unassigned) [Example 199, 4-Chloro-5-(2,6-difluoro-4-((R*)-3,3,3-trifluoro-2-methylpropyl)phenyl)-1-ethyl-N-(((1s,4S)-1-hydroxy-4-(methylsulfonyl)cyclohexyl)methyl)-1H-pyrazole-3-carboxamide]		58 nM	14 nM		inhibition at 2 µM ([2]; HEK-293T): 75%
CCn1nc(C(=O)NC[C@]2(O)CC[C@@H](S(C)(=O)=O)CC2)c(Cl)c1-c1ccc(C(O)(C(F)(F)F)C(F)(F)F)cc1OC(F)F [Example 117, 4-Chloro-5-(2-(difluoromethoxy)-4-(1,1,1,3,3,3-hexafluoro-2-hydroxypropan-2-yl)phenyl)-1-ethyl-N-(((1s,4s)-1-hydroxy-4-(methylsulfonyl)cyclohexyl)methyl)-1H-pyrazole-3-carboxamide]	0.27 nM	4.2 nM		102%	
CCn1nc(C(=O)NC[C@]2(O)CC[C@@H](S(C)(=O)=O)CC2)c(Cl)c1-c1ccc(CCC(F)(F)F)cc1F [Example 180, 4-Chloro-1-ethyl-5-(2-fluoro-4-(3,3,3-trifluoropropyl)phenyl)-N-(((1s,4s)-1-hydroxy-4-(methylsulfonyl)cyclohexyl)methyl)-1H-pyrazole-3-carboxamide]	46 nM	66 nM			inhibition at 2 µM ([2]; HEK-293T): 41%
CCn1nc(C(=O)NC[C@]2(O)CC[C@H](S(C)(=O)=O)CC2)c(Cl)c1-c1ccc(N[C@H](C)C(F)(F)F)cc1OC [Example 220, 4-Chloro-1-ethyl-N-(((1r,4R)-1-hydroxy-4-(methylsulfonyl)cyclohexyl)methyl)-5-(2-methoxy-4-(((R)-1,1,1-trifluoropropan-2-yl)amino)phenyl)-1H-pyrazole-3-carboxamide]	430 nM				RORγt (FL) Reporter Assay A or B, % inhibition @ 6 μM ([2]; 6 μM compound concentration): 90%; IC50 ([2]; HEK293T cells, read-out: RORγt (FL) Reporter Assay A or B, IC50): 1100 nM
Cn1nc(C(=O)NC[C@]2(O)CC[C@@H](S(C)(=O)=O)C[C@H]2O)c(Cl)c1-c1ccc(CCCC(F)(F)F)cc1OC(F)F (stereo in doubt) [Example 160, 4-Chloro-5-(2-(difluoromethoxy)-4-(4,4,4-trifluorobutyl)phenyl)-N-(((1R*,2R*,4R*)-1,2-dihydroxy-4-(methylsulfonyl)cyclohexyl)methyl)-1-methyl-1H-pyrazole-3-carboxamide]		27 nM	39 nM	96%	
Cn1nc(C(=O)NC[C@]2(O)CC[C@@H](S(C)(=O)=O)CC2)c(Cl)c1-c1ccc(CCCC(F)(F)F)cc1OC(F)F [Example 158, 4-Chloro-5-(2-(difluoromethoxy)-4-(4,4,4-trifluorobutyl)phenyl)-N-(((1s,4s)-1-hydroxy-4-(methylsulfonyl)cyclohexyl)methyl)-1-methyl-1H-pyrazole-3-carboxamide]	16 nM	3.4 nM		111%	
Cn1nc(C(=O)NC[C@@]2(O)CC[C@H](S(C)(=O)=O)C[C@@H]2O)c(Cl)c1-c1ccc(CCCC(F)(F)F)cc1OC(F)F (stereo in doubt) [Example 159, 4-Chloro-5-(2-(difluoromethoxy)-4-(4,4,4-trifluorobutyl)phenyl)-N-(((1S*,2S*,4S*)-1,2-dihydroxy-4-(methylsulfonyl)cyclohexyl)methyl)-1-methyl-1H-pyrazole-3-carboxamide]		39 nM	41 nM	73%	

Continued, in another order:

Kd [1, 3]	IC50 [2, 4]	Kd ([1]; ThermoFluor® Assay, Kd)	inhibition at 3 µM ([2]; HEK-293T)	Compound	other results
	6 nM	0.6 nM		CCn1nc(C(=O)NC[C@H]2CC[C@H](S(C)(=O)=O)CC2)c(Cl)c1-c1ccc(C[C@@H](C)C(F)(F)F)cc1OC (single isomer, unassigned) [Example 1, 4-Chloro-1-ethyl-5-(2-methoxy-4-((R*)-3,3,3-trifluoro-2-methylpropyl)phenyl)-N-(((1r,4R)-4-(methylsulfonyl)cyclohexyl)methyl)-1H-pyrazole-3-carboxamide]	inhibition at 0.67 µM ([2]; HEK-293T): 99%
	91 nM	74 nM	92%	CCn1nc(C(=O)NC[C@@H]2CC[C@H](S(C)(=O)=O)CN2)c(Cl)c1-c1ccc(CC(C)(C)C(F)(F)F)cc1OC(F)F (stereo in doubt) [Example 12, 4-Chloro-5-(2-(difluoromethoxy)-4-(3,3,3-trifluoro-2,2-dimethylpropyl)phenyl)-1-ethyl-N-(((2S*,5S*)-5-(methylsulfonyl)piperidin-2-yl)methyl)-1H-pyrazole-3-carboxamide]	
3.7 nM	20 nM			CCn1nc(C(=O)NC[C@H]2CC[C@H](S(C)(=O)=O)CC2)c(C#N)c1-c1ccc(CC(C)(C)C(F)(F)F)cc1OC [Example 127, 4-Cyano-1-ethyl-5-(2-methoxy-4-(3,3,3-trifluoro-2,2-dimethylpropyl)phenyl)-N-(((1r,4r)-4-(methylsulfonyl)cyclohexyl)methyl)-1H-pyrazole-3-carboxamide]	inhibition at 0.67 µM ([2]; HEK-293T): 94%
	61 nM	26 nM		CCn1nc(C(=O)NC[C@@]2(O)CC[C@@H](S(C)(=O)=O)C[C@@H]2O)c(Cl)c1-c1ccc(CC(C)(C)C(F)(F)F)cc1OC(F)F (single isomer, unassigned) [Example 49, 4-Chloro-5-(2-(difluoromethoxy)-4-(3,3,3-trifluoro-2,2-dimethylpropyl)phenyl)-N-(((1S*,2S*,4R*)-1,2-dihydroxy-4-(methylsulfonyl)cyclohexyl)methyl)-1-ethyl-1H-pyrazole-3-carboxamide]	inhibition at 2 µM ([2]; HEK-293T): 96%
	16 nM	32 nM	89%	CCn1nc(C(=O)NC[C@H]2CC[C@H](S(C)(=O)=O)CC2)c(Cl)c1-c1ccc(C2(O)CCC(C(F)(F)F)CC2)cc1OC(F)F (single isomer, unassigned) [Example 115, 4-Chloro-5-(2-(difluoromethoxy)-4-((1r*,4r*)-1-hydroxy-4-(trifluoromethyl)cyclohexyl)phenyl)-1-ethyl-N-(((1r,4r)-4-(methylsulfonyl)cyclohexyl)methyl)-1H-pyrazole-3-carboxamide]	
1.9 nM	13 nM			COCCn1nc(C(=O)NC[C@]2(O)CC[C@@H](S(C)(=O)=O)CC2)c(C)c1-c1ccc(CC(C)(C)C(F)(F)F)cc1OC(F)F [Example 150, 5-(2-(Difluoromethoxy)-4-(3,3,3-trifluoro-2,2-dimethylpropyl)phenyl)-N-(((1s,4s)-1-hydroxy-4-(methylsulfonyl)cyclohexyl)methyl)-1-(2-methoxyethyl)-4-methyl-1H-pyrazole-3-carboxamide]	inhibition at 2 µM ([2]; HEK-293T): 95%
	26 nM	3.5 nM	103%	CCn1nc(C(=O)NC[C@@]2(O)CC[C@H](S(C)(=O)=O)C[C@@H]2O)c(Cl)c1-c1ccc(C[C@H](C)C(F)(F)F)cc1OC(F)F (stereo in doubt) [Example 52, 4-Chloro-5-(2-(difluoromethoxy)-4-((S*)-3,3,3-trifluoro-2-methylpropyl)phenyl)-N-(((1S*,2S*,4S*)-1,2-dihydroxy-4-(methylsulfonyl)cyclohexyl)methyl)-1-ethyl-1H-pyrazole-3-carboxamide]	
	5.4 nM	0.13 nM		CCn1nc(C(=O)NC[C@H]2CC[C@H](S(C)(=O)=O)CO2)c(Cl)c1-c1ccc(CC(C)(C)C(F)(F)F)cc1OC(F)F (single isomer, unassigned) [Example 15, 4-Chloro-5-(2-(difluoromethoxy)-4-(3,3,3-trifluoro-2,2-dimethylpropyl)phenyl)-1-ethyl-N-(((2R*,5S)-5-(methylsulfonyl)tetrahydro-2H-pyran-2-yl)methyl)-1H-pyrazole-3-carboxamide]	inhibition at 0.67 µM ([2]; HEK-293T): 113%
	10 nM	0.35 nM		CCn1nc(C(=O)NC[C@H]2CC[C@H](S(C)(=O)=O)CC2)c(Cl)c1-c1ccc(C[C@H](C)C(F)(F)F)cc1OC(F)F (single isomer, unassigned) [Example 55, 4-Chloro-5-(2-(difluoromethoxy)-4-((S*)-3,3,3-trifluoro-2-methylpropyl)phenyl)-1-ethyl-N-(((1r,4S)-4-(methylsulfonyl)cyclohexyl)methyl)-1H-pyrazole-3-carboxamide]	inhibition at […] ([2]; HEK-293T, 0.11 μM compound concentration (footnote ********)): 94%
7.7 nM	34 nM			COCCn1nc(C(=O)NC[C@]2(O)CC[C@@H](S(C)(=O)=O)CC2)c(Cl)c1-c1ccc(CC(C)(C)C(F)(F)F)cc1OC [Example 186, 4-Chloro-N-(((1s,4s)-1-hydroxy-4-(methylsulfonyl)cyclohexyl)methyl)-5-(2-methoxy-4-(3,3,3-trifluoro-2,2-dimethylpropyl)phenyl)-1-(2-methoxyethyl)-1H-pyrazole-3-carboxamide]	inhibition at 6 µM ([2]; HEK-293T, read-out: RORγt (FL) Reporter Assay A or B, % inhibition @ 6 μM, 6 μM compound concentration): 96%
